According to patent US20230277508A1, “USE OF COMPOUND AS CYP2E1 INHIBITOR” (SHANGHAI LING XI BIOTECHNOLOGY DEVELOPMENT CO., LTD., priority 2020, published 2023):

Legend:
[1] = system: blood glucose level in diabetes rats; test: Diabetes rat model induced by a high-fat diet and STZ; type: in vivo
Experimental: Experimental method: A diabetes rat model was constructed by a high-fat diet+single intraperitoneal injection of STZ (40 mg/kg). A FBG level of higher than or equal to 16.7 mmol/L after two weeks of molding was a criterion for successful molding. Modeled rats were divided into various groups according to the blood glucose level. Rats in a model group were administered with NS, and rats in SMI0 low-dose and high-dose intervention groups were administered with the compound SMI0 at 30 mg/kg and 150 mg/kg every day, respectively. The FBG level in rats was determined and recorded regularly every week until the sixth week after administration. 10 rats were provided in each group.

A549 lung cancer cells = test: Direct effect on proliferation of A549 lung cancer cells (CCK8); type: cell-based; conditions: up to 100 μmol/L, 24 h
Experimental: Experimental method: Lewis lung cancer cells and A549 lung cancer cells in a logarithmic growth phase each were selected and inoculated into a 96-well plate at a concentration of 1*10^5 cells/mL, then 100 μL of a basic medium including SMI0 at different concentrations (0 μmol/L, 0.16 μmol/L, 0.8 μmol/L, 4 μmol/L, 20 μmol/L, and 100 μmol/L) was added to each well, and 24 h later, 10 μL of a CCK8 reagent was added to each well; and the cells were further cultivated for 2 h, and an absorbance OD value of each well was determined at 450 nm by a microplate reader. 3 replicates were set for each well, and an average was taken. The proliferation activity was calculated based on the OD value.

[2] = system: CFA-induced rheumatoid arthritis in rats; test: CFA-induced rat rheumatoid arthritis model; type: in vivo, SD rat; conditions: for rat foot swelling alleviation rate: at 36 h
Experimental: Experimental method: An SD rat rheumatoid arthritis model was constructed with CFA (0.1 mL/rat). The SMI0 intervention group was divided into an ultra-low-dose group, a low-dose group, a medium-dose group, and a high-dose group, which were intragastrically administered with the compound SMI0 respectively at 1 mg/kg, 6 mg/kg, 30 mg/kg, and 150 mg/kg every day starting from two days before modeling; and the positive control group was intragastrically administered with celecoxib at 5 mg/kg. 10 animals were provided for each group. 1 d before administration of CFA to the rats, the above grouping and doses were adopted, and then the rats were administered once every day until the modeling was completed on day 10. Each rat was administered with CFA at a sole of a right hindfoot. A volume of each of the right hindfeet of rats was measured every day by a rat foot swelling measuring instrument (which was measured every 12 h in the first 3 days). A foot swelling rate of each rat was calculated according to a change of a right hindfoot volume of the rat relative to a hindfoot volume of the rat before the CFA administration at each time point, and a difference in foot swelling rate between groups of rats was analyzed.

[3] = system: liver cancer cell line H22 in situ transplanted tumor; test: Mouse liver cancer model, in situ implantation of H22 cells into liver; type: in vivo, BALB/c mouse; conditions: for liver H22 tumor incidence: 24 days, model group 100%
Experimental: Experimental method: A male BALB/c mouse liver transplanted tumor model was constructed through in situ implantation of a liver cancer cell line H22 into the liver, with a cell concentration of 1.5*10^5. An SMI0 intervention group was divided into a low-dose group, a medium-dose group, and a high-dose group, which were intragastrically administered with the compound SMI0 respectively at 3.3 mg/kg, 10 mg/kg, and 30 mg/kg every day from two days before modeling to the end of the 24-day modeling (model group, n=19 mice; SMI0 compound low-dose group, n=19 mice; SMI0 compound medium-dose group, n=18 mice; and SMI0 compound high-dose group, n=29 mice). At the end of the experiment, blood was collected from the orbit, a body weight was measured, and then the mice each were sacrificed. The weight and appearance of a liver (color and texture of the liver) were recorded. Some liver specimens were subjected to HE staining, and then the liver lesion and tumorigenesis of mice in each group were observed.
Experimental method: The levels of oxidative stress indexes MDA and T-AOC in the mouse paracancerous liver tissue were determined by a kit method; the expression of the chemokine CXCL-12 in the mouse paracancerous liver tissue was detected by RT-PCR; the expression of proinflammatory cytokines (TNF-α, IL-6, and IL-1β) and inflammation-associated signaling pathway proteins (ARRB1, Src, ITGAV, p-STAT3/STAT3, p-ERK/ERK, and p-P38MAPK/P38MAPK) in the mouse paracancerous liver tissue was detected by a WB method; and the expression of apoptosis-associated proteins and signaling pathways casPase3, cleaved casPase3, p-ERK/ERK, and p-p38MAPK/p38MAPK in the tumor tissue was detected by a WB method.

[4] = system: collagen-induced rheumatoid arthritis in rats; test: Collagen-induced rat rheumatoid arthritis model; type: in vivo, SD rat; conditions: SMI0 75, 37.5 and 18.75 mg/kg ig once daily, day 21, vs model group
Experimental: Experimental method: A collagen emulsion was used to construct an SD rat rheumatoid arthritis model. 50 rats successfully modeled were randomly divided into five groups: model group (normal saline (NS), 0.5 mL/kg, i.g.); positive control group (celecoxib, 5 mg/kg, i.g.); SMI0 low-dose group (18.75 mg/kg, i.g.); SMI0 medium-dose group (37.5 mg/kg, i.g.); and SMI0 high-dose group (75 mg/kg, i.g.). The rats each were administered once every day starting from the first day after successful modeling. A thickness of each of the left and right hindfeet and the left and right forefeet of rats was measured every day by a vernier caliper, and a volume of each of the left and right hindfeet of rats was measured by a rat foot swelling measuring instrument (which was measured every 12 h in the first 3 days). A foot swelling rate of each rat was calculated according to a change of a hindfoot volume of the rat relative to a hindfoot volume of the rat before the modeling at each time point, and a difference in foot swelling rate between groups of rats was analyzed. After the successful modeling, blood was collected from the orbit on day 7; rats were sacrificed on day 20, blood was collected, and serum was isolated; and tissues such as ankles, toe joints, spleens, and livers were collected. […]

[5] = WB, SMI0 30 mg/kg vs model group

CC(=O)c1scnc1C [SMI0]
FBG levels ([1]; SMI0 low-dose (30 mg/kg) and high-dose (150 mg/kg) daily, weeks 5 and 6, vs model group, P<0.05): significantly reduced | glucose tolerance ([1]; glucose tolerance test, SMI0 30 and 150 mg/kg daily): significantly improved | effect on the proliferation of A549 lung cancer cells (A549 lung cancer cells): no significant inhibitory effect | rat foot swelling alleviation rate ([2]; SMI0 1 mg/kg ig daily): 20.8% | rat foot swelling alleviation rate ([2]; SMI0 6 mg/kg ig daily): 34.2% | rat foot swelling alleviation rate ([2]; SMI0 30 mg/kg ig daily): 44.1% | rat foot swelling alleviation rate ([2]; SMI0 150 mg/kg ig daily): 52.5% | rat foot swelling caused by CFA ([2]; SMI0 intervention group vs model group, P<0.001): significantly alleviated | liver H22 tumor incidence ([3]; SMI0 high-dose 30 mg/kg ig daily): 68.4% | total oxidation resistance index T-AOC in paratumoral liver tissue ([3]; SMI0 intervention group vs model group, P<0.01): significantly increased | expression of other proteins (MDA, CXCL-12, TNF-α, IL-6, IL-1β, ARRB1, Src, ITGAV, p-STAT3/STAT3, p-ERK/ERK, p-p38MAPK/p38MAPK) in paratumoral liver tissue ([3]; SMI0 intervention group vs model group, P<0.05 or P<0.01): significantly reduced | liver H22 tumor incidence ([3]; SMI0 low-dose 3.3 mg/kg ig daily): 78.9% | liver H22 tumor incidence ([3]; SMI0 medium-dose 10 mg/kg ig daily): 72.2% | expression of p-ERK/ERK in the tumor tissue [3, 5]: significantly down-regulated | expression of p-p38MAPK/p38MAPK in the tumor tissue [3, 5]: significantly down-regulated | expression of cleaved caspase3/caspase3 in the tumor tissue ([3]; WB, SMI0 30 mg/kg vs model group, P<0.01): significantly up-regulated | tumor proliferation inhibition rate ([3]; as high as, SMI0 intervention group (3.3, 10, 30 mg/kg), cumulative liver tumor weight): 71.8% | foot swelling degrees [4]: significantly reduced
